According to the Deep4Chem optical property database:
Values belong to the molecule of their own block, whether it stands above or below them.

Assay: solvent given as SMILES

SMILES: N#Cc1cc(N2c3ccccc3Sc3ccccc32)cc(N2c3ccccc3Sc3ccccc32)c1
- fluorescence lifetime (in Cc1ccccc1): 22.6 ns

SMILES: C(#Cc1ccccc1)C(C#Cc1ccccc1)=Cc1ccc(-c2ccc(C=C(C#Cc3ccccc3)C#Cc3ccccc3)cc2)cc1
- fluorescence lifetime (in ClC(Cl)Cl): 0.7 ns

SMILES: c1cc2c3c(c1)-c1cccc4cccc(c14)B3c1cccc3cccc-2c13
- fluorescence lifetime (in Cc1ccccc1): 6.31 ns

SMILES: CCN(CC)c1ccc(-c2nc3c(c4c2-c2ccccc2CC4)-c2ccccc2CC3)cc1
- fluorescence lifetime (in C1CCOC1): 1.06 ns
- fluorescence lifetime (in CC#N): 0.68 ns
- fluorescence lifetime (in CCOC(C)=O): 0.85 ns
- fluorescence lifetime (in CO): 0.68 ns
- fluorescence lifetime (in CS(C)=O): 1.02 ns
- fluorescence lifetime (in Cc1ccccc1): 0.8 ns
- fluorescence lifetime (in ClCCl): 1.22 ns

SMILES: Cc1cc(C)c(B(c2ccccc2-n2c3ccccc3c3ccccc32)c2c(C)cc(C)cc2C)c(C)c1
- fluorescence lifetime (in Cc1ccccc1): 38 ns

SMILES: CC1(C)c2ccccc2N(c2ccccc2)c2ccc(-c3ccc(C(=O)c4ccc(-c5ccc6c(c5)C(C)(C)c5ccccc5N6c5ccccc5)cc4)cc3)cc21
- fluorescence lifetime (in O=P(c1ccccc1)(c1ccccc1)c1ccccc1Oc1ccccc1P(=O)(c1ccccc1)c1ccccc1): 1.87 ns

SMILES: c1ccc(-c2nc(-c3ccc(N4CCCC4)cc3)cc(-c3ccc4ccccc4c3)n2)cc1
- fluorescence lifetime (in ClC(Cl)Cl): 2.4 ns

SMILES: C=Cc1cc(OC)cc(OC)c1
- fluorescence lifetime (in C1CCCCC1): 3.8 ns
- fluorescence lifetime (in CC#N): 6.9 ns

SMILES: COc1ccc(/C=C/c2nc(N3CCOCC3)c3c([n+]2[O-])CCCC3)cc1
- fluorescence lifetime (in ClCCl): 8.3 ns

SMILES: Cc1cc(C)c(B(c2ccccc2N(c2ccccc2)c2ccccc2)c2c(C)cc(C)cc2C)c(C)c1
- fluorescence lifetime (in Cc1ccccc1): 27 ns

SMILES: Nc1ncc2nc[nH]c2n1
- fluorescence lifetime (in O): 11.3 ns

SMILES: COc1ccc(-c2nc(C(C)=O)c(C)o2)cc1
- fluorescence lifetime (in CC#N): 3.92 ns
- fluorescence lifetime (in CCO): 2.31 ns
- fluorescence lifetime (in CCOC(C)=O): 4.53 ns
- fluorescence lifetime (in CCOCC): 1.79 ns
- fluorescence lifetime (in ClCCl): 1.7 ns

SMILES: CCCCCCCCCCCCCCCCOc1cc(C#Cc2ccc3ccccc3c2)c(OCCCCCCCCCCCCCCCC)cc1C#Cc1ccc(C=C(C#N)C#N)cc1
- fluorescence lifetime (in Brc1ccccc1): 2.82 ns
- fluorescence lifetime (in C1CCCCC1): 1.92 ns
- fluorescence lifetime (in C1CCOC1): 0.98 ns
- fluorescence lifetime (in C1COCCO1): 3.1 ns
- fluorescence lifetime (in CCCCCC): 1.97 ns
- fluorescence lifetime (in CCCCCCCCO): 0.62 ns
- fluorescence lifetime (in CCCCOCCCC): 2.73 ns
- fluorescence lifetime (in CCOC(C)=O): 1.05 ns
- fluorescence lifetime (in CCOCC): 3.33 ns
- fluorescence lifetime (in Cc1ccccc1): 2.53 ns
- fluorescence lifetime (in ClC(Cl)(Cl)Cl): 1.94 ns
- fluorescence lifetime (in ClC(Cl)Cl): 2.26 ns
- fluorescence lifetime (in ClCCl): 0.63 ns

SMILES: CN1C(=CC=Cc2nc3nc4ccccc4nc3s2)C(C)(C)c2ccccc21
- fluorescence lifetime (in CCCCCCC(C)O): 1.04 ns
- fluorescence lifetime (in CCOC(C)=O): 0.92 ns
- fluorescence lifetime (in CO): 0.18 ns
- fluorescence lifetime (in CS(C)=O): 1.04 ns
- fluorescence lifetime (in Cc1ccccc1): 0.11 ns
- fluorescence lifetime (in ClC(Cl)Cl): 1.08 ns
- fluorescence lifetime (in ClCCl): 0.99 ns

Further lines, results first:

- fluorescence lifetime (in C1CCOC1): 6.8 ns
- fluorescence lifetime (in CC#N): 3.5 ns
- fluorescence lifetime (in CCCCCC): 16 ns
SMILES: CC1=N/C(=C\c2ccc(C#N)c(N(C)C)c2)C(=O)N1C

- fluorescence lifetime (in ClCCl): 8.2 ns
SMILES: CCOc1ccc(/C=C/c2nc(N3CCOCC3)c3c([n+]2[O-])CCCC3)cc1

- fluorescence lifetime (in CCCCCC): 6.62 ns
- fluorescence lifetime (in CO): 6.69 ns
- fluorescence lifetime (in ClCCl): 6.16 ns
SMILES: CC1=C2C=CC=[N+]2[B-](F)(F)n2cccc21

- fluorescence lifetime (in CC#N): 3.92 ns
- fluorescence lifetime (in O): 1.04 ns
SMILES: CC(=O)OC[C@@H]1O[C@H](N2C=CC3=Nc4nc(C)[n+](C)cc4CN3C2=O)[C@@H](O)[C@H]1O

- fluorescence lifetime (in CS(C)=O): 8.1 ns
SMILES: CCCCCn1c2ccccc2c(=O)c2ccccc21

- fluorescence lifetime (in CC#N): 0.18 ns
- fluorescence lifetime (in CCCCCC): 0.22 ns
SMILES: Nc1ccc(/C=C/c2cccnc2)cc1

- fluorescence lifetime (in CC#N): 2.3 ns
SMILES: CC1=CC(/C=C/c2ccc(N(C)C)cc2)=[N+]2C1=C(c1ccc(C#CCO[C@@H]3O[C@H](CO)[C@@H](O)C(O)[C@H]3O)cc1)c1c(C)cc(/C=C/c3ccc(N(C)C)cc3)n1[B-]2(F)F (some centres not stated)

- fluorescence lifetime (in C1CCOC1): 5.1 ns
SMILES: CC(=O)c1ccc(-c2cnc3nn4ccccc4c3n2)cc1

- fluorescence lifetime (in ClCCl): 3.5 ns
SMILES: COc1ccc(C2=C(C)C3=C(c4c(-c5ccccn5)nc5ccccn45)c4c(C)c(-c5ccc(OC)cc5)c(C)n4[B-](F)(F)[N+]3=C2C)cc1

- fluorescence lifetime (in CCCCCC): 54.7 ns
- fluorescence lifetime (in CO): 64.5 ns
- fluorescence lifetime (in ClCCl): 37.6 ns
SMILES: Cc1ccc2ccc3c(C)ccc4ccc1c2c43

- fluorescence lifetime (in CS(C)=O): 0.36 ns
SMILES: O=S(=O)([O-])CCCCN1C=C/C(=C/C=C/C=C/c2cc[n+](CCCCS(=O)(=O)[O-])c3ccccc23)c2ccccc21

- fluorescence lifetime (in ClCCl): 0.99 ns
SMILES: CCCCn1c(-c2ccc(-c3nnc(-c4ccc(-c5nc6ccccc6n5CCCC)cc4)o3)cc2)nc2ccccc21

- fluorescence lifetime (in ClCCl): 3.6 ns
SMILES: Cc1ccc(C(=O)c2c(C)c3ccc4cccc5c6cccc7ccc2c(c76)c3c45)cc1

- fluorescence lifetime (in ClCCl): 3.51 ns
SMILES: CCN(CC)c1ccc2c(c1)oc(=O)c1c(C)nc3c(c(-c4ccccc4)nn3-c3ccccc3)c12

- fluorescence lifetime (in CO): 59 ns
SMILES: O=C(O)CCCOc1cc2ccc3cccc4ccc(c1)c2c34

- fluorescence lifetime (in CCCCCC): 21 ns
SMILES: COC(=O)c1c(C(=O)OC)c2ccc(-c3ccccc3)nn2c1C
